Experimental findings from patent publication US9290478B2, “Substituted quinoxalines as FGFR kinase inhibitors” (ASTEX THERAPEUTICS LTD, priority 2010, dated 2016) are described below.

Structures are written as SMILES. Bounds are passed on as bounds.

The target of assay [1] is FGFR2 (h) (Homo sapiens, UniProt P21802). The assay can be described thus: FGFR2 (enzymatic assay), TR-FRET. In kind it is biochemical. As to conditions: 0.4 μM ATP; read-out: FGFR2 pIC50 (converted). As for the experimental part: (§1) In a final reaction volume of 30 μL, FGFR2 (h) (150 ng/ml) was incubated with 50 mM HEPES pH 7.5, 6 mM MnCl2, 1 mM DTT, 0.1 mM Na3VO4, 0.01% Triton-X-100, 500 nM Btn-Flt3 and 0.4 μM ATP in the presence of compound (1% DMSO final). After incubation for 60 minutes at room temperature the reaction was stopped with 2.27 nM EU-anti P-Tyr, 7 mM EDTA, 31.25 nM SA-XL-665 and 0.02% BSA which was present for 60 minutes at room temperature. Time-Resolved Fluorescence Resonance Energy Transfer (TR-FRET) signal (ex340 nm. Em 620 nm, em 655 nm) was measured afterwards and results are expressed in (Relative Fluorescence Units). In this assay, the inhibitory effect of different compound concentrations (range 10 μM to 0.1 nM) was determined and used to calculate an IC50 (M) and pIC50 (−log IC50) value.
Chain of FGFR2 (h) (P21802 22-821): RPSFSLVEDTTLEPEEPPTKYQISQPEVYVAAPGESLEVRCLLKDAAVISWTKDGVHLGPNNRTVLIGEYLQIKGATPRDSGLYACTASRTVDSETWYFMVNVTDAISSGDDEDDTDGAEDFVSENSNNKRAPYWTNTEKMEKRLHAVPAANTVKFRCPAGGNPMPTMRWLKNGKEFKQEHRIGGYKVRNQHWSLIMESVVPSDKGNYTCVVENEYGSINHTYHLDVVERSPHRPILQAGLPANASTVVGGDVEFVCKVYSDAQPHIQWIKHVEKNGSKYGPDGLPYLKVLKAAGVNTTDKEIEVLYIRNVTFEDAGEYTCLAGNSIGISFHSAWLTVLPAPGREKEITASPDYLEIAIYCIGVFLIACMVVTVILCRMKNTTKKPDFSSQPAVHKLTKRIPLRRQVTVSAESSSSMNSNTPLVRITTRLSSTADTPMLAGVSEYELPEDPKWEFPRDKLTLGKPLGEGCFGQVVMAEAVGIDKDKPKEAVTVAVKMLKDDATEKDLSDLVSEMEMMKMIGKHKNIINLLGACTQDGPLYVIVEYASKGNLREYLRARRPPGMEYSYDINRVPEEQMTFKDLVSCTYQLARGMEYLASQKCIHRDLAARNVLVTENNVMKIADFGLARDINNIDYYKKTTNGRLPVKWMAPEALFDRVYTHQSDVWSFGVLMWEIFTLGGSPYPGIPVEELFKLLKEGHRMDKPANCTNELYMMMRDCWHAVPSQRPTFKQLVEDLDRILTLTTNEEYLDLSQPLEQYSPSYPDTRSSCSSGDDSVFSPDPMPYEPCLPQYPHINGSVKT

The target of assay [2] is T1, Ba/F3-KDR-transfected cells (Homo sapiens, UniProt P35968).
T1 construct: BAF3-KDR (MIN IL3) pIC50; other: minus IL3
T1 sequence (P35968 whole entry, change not shown): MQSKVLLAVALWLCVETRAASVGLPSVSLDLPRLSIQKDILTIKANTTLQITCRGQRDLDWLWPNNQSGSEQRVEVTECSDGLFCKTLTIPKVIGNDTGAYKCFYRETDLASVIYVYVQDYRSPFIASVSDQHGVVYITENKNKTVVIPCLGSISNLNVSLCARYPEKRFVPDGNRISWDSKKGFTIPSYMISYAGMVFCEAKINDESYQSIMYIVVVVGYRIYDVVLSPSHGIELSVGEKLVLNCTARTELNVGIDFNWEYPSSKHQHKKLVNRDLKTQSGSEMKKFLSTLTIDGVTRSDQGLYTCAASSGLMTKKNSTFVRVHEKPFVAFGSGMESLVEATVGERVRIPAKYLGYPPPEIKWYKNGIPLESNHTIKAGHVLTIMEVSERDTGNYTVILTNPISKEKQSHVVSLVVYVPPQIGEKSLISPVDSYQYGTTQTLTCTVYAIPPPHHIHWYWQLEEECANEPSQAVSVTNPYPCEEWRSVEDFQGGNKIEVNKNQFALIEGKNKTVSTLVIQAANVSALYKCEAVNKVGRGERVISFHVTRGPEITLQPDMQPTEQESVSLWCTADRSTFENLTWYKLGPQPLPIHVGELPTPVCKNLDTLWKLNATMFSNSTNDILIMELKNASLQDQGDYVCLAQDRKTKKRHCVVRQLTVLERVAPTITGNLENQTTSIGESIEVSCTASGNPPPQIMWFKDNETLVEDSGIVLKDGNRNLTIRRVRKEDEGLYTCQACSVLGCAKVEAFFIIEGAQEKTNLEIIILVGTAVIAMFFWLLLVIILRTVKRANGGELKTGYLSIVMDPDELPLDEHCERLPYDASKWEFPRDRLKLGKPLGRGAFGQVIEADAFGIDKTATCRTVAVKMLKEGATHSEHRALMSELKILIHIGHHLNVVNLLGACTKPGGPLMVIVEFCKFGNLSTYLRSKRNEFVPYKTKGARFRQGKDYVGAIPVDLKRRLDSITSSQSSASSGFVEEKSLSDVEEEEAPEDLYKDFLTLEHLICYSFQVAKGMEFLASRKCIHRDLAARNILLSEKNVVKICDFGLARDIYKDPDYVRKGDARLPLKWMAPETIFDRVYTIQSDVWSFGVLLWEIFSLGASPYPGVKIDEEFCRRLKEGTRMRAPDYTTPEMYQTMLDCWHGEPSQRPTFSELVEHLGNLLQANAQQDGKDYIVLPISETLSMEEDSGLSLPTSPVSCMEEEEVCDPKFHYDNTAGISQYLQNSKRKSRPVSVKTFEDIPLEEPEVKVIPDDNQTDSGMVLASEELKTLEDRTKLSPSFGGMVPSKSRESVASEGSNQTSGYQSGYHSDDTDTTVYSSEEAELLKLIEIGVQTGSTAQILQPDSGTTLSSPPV
The assay can be described thus: Ba/F3-KDR (minus IL3 or plus IL3) cellular proliferation assay. In kind it is cell-based. As to conditions: minus IL3. The procedure:
(§2) Ba/F3-KDR (Minus IL3 or Plus IL3) (Cellular Proliferation Assay)
(§3) In a 384 well plate, 100 nI of compound dilution in DMSO was sprayed before adding 50 μl cell culture medium (phenol red free RPMI-1640, 10% FBS, 2 mM L-Glutamine and 50 μg/ml Gentamycin) containing 20000 cells per well of Ba/F3-KDR-transfected cells. Cells were put in an incubator at 37° C. and 5% CO2. After 24 hours, 10 μl of Alamar Blue solution (0.5 mM K3Fe(CN)6, 0.5 mM K4Fe(CN)6, 0.15 mM Resazurin and 100 mM Phosphate Buffer) was added to the wells, incubated for 4 hours at 37° C. and 5% CO2 before RFU's (Relative Fluorescence Units) (ex. 540 nm., em. 590 nm.) were measured in a fluororescence plate reader.
(§4) In this assay, the inhibitory effect of different compound concentrations (range 10 μM to 0.1 nM) was determined and used to calculate an IC50 (M) and pIC50 (−log IC50) value. As a counterscreen the same experiment was performed in the presence of 10 ng/ml murine IL3.

Assay [3] concerns Ba/F3-KDR-transfected cells. The description is as above. The assay is classed as cell-based. As to conditions: plus 10 ng/ml murine IL3 (counterscreen); for IC50: 24 h, read-out: BAF3-KDR (PLUS IL3) pIC50 (converted). As for the experimental part:
as §2, §3, §4
On the technique in general: The purpose of a counterscreen is to sort out artefacts and off-target activity.

The target of assay [4] is FGFR4 (h) (Homo sapiens, UniProt P22455). The assay can be described thus: FGFR4 (enzymatic assay), TR-FRET. To be noted: 5 μM ATP; for IC50: read-out: FGFR4 pIC50 (converted). In kind it is biochemical. As for the experimental part: as §1, with “30 μL, FGFR4 (h) (60” for “30 μL, FGFR2 (h) (150”, “FGFR4 (h) (60 ng/ml) was” for “FGFR2 (h) (150 ng/ml) was”, “Btn-Flt3 and 5 μM ATP” for “Btn-Flt3 and 0.4 μM ATP”, “expressed in RFU (Relative Fluorescence” for “expressed in (Relative Fluorescence”
Chain of FGFR4 (h) (P22455 22-802): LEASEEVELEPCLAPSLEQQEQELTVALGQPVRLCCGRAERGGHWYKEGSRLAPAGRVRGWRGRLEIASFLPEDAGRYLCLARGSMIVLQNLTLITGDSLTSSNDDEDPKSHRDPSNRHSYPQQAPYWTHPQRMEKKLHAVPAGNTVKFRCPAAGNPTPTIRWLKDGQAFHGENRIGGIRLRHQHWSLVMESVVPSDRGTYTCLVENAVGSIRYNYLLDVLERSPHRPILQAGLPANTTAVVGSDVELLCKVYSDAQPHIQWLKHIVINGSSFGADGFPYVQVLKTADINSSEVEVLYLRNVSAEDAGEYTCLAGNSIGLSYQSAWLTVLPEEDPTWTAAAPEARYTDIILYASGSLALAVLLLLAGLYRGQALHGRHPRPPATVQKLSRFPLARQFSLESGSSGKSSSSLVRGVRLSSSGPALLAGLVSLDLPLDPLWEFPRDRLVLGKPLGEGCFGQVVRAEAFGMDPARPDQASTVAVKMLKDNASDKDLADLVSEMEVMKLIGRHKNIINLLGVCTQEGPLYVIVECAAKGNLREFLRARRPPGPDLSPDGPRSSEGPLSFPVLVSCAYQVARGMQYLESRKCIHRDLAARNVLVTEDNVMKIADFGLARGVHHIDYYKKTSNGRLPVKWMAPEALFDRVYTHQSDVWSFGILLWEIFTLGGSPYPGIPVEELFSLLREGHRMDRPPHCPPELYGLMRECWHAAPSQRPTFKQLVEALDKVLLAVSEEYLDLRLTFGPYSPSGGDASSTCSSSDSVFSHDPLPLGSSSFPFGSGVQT
(In TR-FRET formats the signal depends on donor and acceptor labels being close together.)

Assay [5] deals with T2, Ba/F3-FGFR3-transfected cells (Homo sapiens, UniProt P22607).
T2 construct: BAF3-FGFR3 (MIN IL3) pIC50; other: minus IL3
T2 sequence (P22607 whole entry, change not shown): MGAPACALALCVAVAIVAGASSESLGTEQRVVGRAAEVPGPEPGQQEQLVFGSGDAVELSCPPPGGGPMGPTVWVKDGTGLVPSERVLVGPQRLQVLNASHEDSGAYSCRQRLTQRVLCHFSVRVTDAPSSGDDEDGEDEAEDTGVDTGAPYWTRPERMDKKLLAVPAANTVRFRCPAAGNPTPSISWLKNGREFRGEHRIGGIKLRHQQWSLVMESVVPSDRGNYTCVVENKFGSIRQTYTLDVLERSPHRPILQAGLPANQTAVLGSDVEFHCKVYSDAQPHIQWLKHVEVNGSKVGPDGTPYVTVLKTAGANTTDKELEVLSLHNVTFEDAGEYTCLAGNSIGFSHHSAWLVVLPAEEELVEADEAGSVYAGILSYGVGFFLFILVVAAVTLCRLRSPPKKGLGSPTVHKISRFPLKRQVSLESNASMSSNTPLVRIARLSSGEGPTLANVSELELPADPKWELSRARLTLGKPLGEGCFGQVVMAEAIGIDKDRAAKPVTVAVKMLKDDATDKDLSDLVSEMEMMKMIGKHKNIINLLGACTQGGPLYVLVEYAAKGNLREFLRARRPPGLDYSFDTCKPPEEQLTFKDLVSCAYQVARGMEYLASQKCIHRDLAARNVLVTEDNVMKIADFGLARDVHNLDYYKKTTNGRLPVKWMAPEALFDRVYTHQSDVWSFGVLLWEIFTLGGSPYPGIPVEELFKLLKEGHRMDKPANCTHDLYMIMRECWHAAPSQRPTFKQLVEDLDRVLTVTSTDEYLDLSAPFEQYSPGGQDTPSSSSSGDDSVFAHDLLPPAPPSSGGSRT
Description: Ba/F3-FGFR3 (minus IL3 or plus IL3) cellular proliferation assay. The assay is classed as cell-based. To be noted: minus IL3. As for the experimental part: (§5) Ba/F3-FGFR3 (Minus IL3 or Plus IL3) (Cellular Proliferation Assay)
as §3, with “Ba/F3-FGFR3-transfected” for “Ba/F3-KDR-transfected”
as §4

Assay [6] relates to Ba/F3-FGFR3-transfected cells. Described as above. As to conditions: plus 10 ng/ml murine IL3 (counterscreen); for IC50: 24 h, read-out: BAF3-FGFR3 (PLUS IL3) pIC50 (converted). In kind it is cell-based. The procedure: as §5
as §3, with “Ba/F3-FGFR3-transfected” for “Ba/F3-KDR-transfected”
as §4

The target of assay [7] is T3, Ba/F3-FGFR1-transfected cells (Homo sapiens, UniProt P11362).
T3 construct: BAF3-FGFR1 (MIN IL3) pIC50; other: minus IL3
T3 sequence (P11362 whole entry, change not shown): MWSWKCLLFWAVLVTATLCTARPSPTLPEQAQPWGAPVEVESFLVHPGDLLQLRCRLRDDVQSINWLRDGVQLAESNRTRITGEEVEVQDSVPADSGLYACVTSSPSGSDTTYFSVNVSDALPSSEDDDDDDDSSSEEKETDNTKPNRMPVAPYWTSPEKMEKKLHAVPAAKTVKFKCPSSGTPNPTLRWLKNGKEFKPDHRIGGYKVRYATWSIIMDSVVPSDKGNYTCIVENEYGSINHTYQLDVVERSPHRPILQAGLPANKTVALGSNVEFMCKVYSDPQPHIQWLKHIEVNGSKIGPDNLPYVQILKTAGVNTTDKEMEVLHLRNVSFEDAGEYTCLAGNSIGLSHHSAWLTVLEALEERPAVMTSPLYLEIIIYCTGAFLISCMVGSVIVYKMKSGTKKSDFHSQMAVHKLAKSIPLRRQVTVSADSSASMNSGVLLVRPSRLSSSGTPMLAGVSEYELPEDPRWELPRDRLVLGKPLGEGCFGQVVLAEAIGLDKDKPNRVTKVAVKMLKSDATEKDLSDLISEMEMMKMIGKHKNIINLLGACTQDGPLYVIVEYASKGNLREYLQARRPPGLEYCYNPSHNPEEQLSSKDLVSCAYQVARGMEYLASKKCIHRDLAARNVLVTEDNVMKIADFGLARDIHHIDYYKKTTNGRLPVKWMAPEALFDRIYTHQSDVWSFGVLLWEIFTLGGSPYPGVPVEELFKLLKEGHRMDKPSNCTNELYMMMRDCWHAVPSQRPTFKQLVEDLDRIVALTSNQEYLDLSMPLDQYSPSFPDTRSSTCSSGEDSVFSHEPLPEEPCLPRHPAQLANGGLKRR
The assay can be described thus: Ba/F3-FGFR1 (minus IL3 or plus IL3) cellular proliferation assay. The assay is classed as cell-based. As to conditions: minus IL3. As for the experimental part: (§6) Ba/F3-FGFR1 (Minus IL3 or Plus IL3) (Cellular Proliferation Assay)
as §3, with “nl” for “nI”, “Ba/F3-FGFR1-transfected” for “Ba/F3-KDR-transfected”
(§7) In this assay, the inhibitory effect of different compound concentrations (range 10 μM to 0.1 nM) was determined and used to calculate an IC50 (M) and pIC50 (−log IC50) value.
(§8) As a counterscreen the same experiment was performed in the presence of 10 ng/ml murine IL3.

Assay [8] has as its system Ba/F3-FGFR1-transfected cells. The assay is described as above. In kind it is cell-based. As to conditions: plus 10 ng/ml murine IL3 (counterscreen); for IC50: 24 h, read-out: BAF3-FGFR1 (PLUS IL3) pIC50 (converted). As for the experimental part: as §6
as §3, with “nl” for “nI”, “Ba/F3-FGFR1-transfected” for “Ba/F3-KDR-transfected”
as §7, §8

Consider `COc1cc(OC)cc(C(CCCN)c2ccc3ncc(-c4cnn(C)c4)nc3c2)c1.Cl` (centres unmarked) [Compound 40], for which the IC50 is 0.427 µM in assay [1]; over 10 µM in assay [3]; over 1 µM in assay [4]; over 10 µM in assay [6]; over 10 µM in assay [8]. Further, the “BAF3-KDR (MIN IL3) pIC50” value in assay [2] is listed as under 5. The “BAF3-FGFR3 (MIN IL3) pIC50” value in assay [5] came out at 5.27. The “BAF3-FGFR1 (MIN IL3) pIC50” value in assay [7] was found to be 5.
On to `COc1cc(OC)cc(C(CCNCC(F)(F)F)c2ccc3ncc(-c4cnn(C)c4)nc3c2)c1.Cl` (centres unmarked) [Compound 33], for which the IC50 in assay [1] is 0.38 µM; in assay [3], over 10 µM; in assay [4], about 1 µM; in assay [6], over 10 µM; in assay [8] it was over 10 µM. Moreover, in assay [2], the “BAF3-KDR (MIN IL3) pIC50” value is under 5. In assay [5], the “BAF3-FGFR3 (MIN IL3) pIC50” value is about 5.11. The “BAF3-FGFR1 (MIN IL3) pIC50” value in assay [7] was found to be 5.11.
As for `COc1cc(OC)cc(/C(=C/CN(C)C)c2ccc3ncc(-c4cnn(C)c4)nc3c2)c1` [Compound 34], the IC50 in assay [1] was 0.17 µM; in assay [3], over 10 µM; in assay [4] it was over 1 µM; in assay [6], over 10 µM; in assay [8], over 10 µM. In assay [2], the “BAF3-KDR (MIN IL3) pIC50” value was under 5. For the same compound, the “BAF3-FGFR3 (MIN IL3) pIC50” value in assay [5] was about 5.13. Moreover, in assay [7], the “BAF3-FGFR1 (MIN IL3) pIC50” value came out at 5.08.
As for `COc1cc(OC)cc(C(CCNC(C)C)c2ccc3ncc(-c4cnn(C)c4)nc3c2)c1` (single isomer, unassigned) [Compound 19a], the IC50 in assay [1] is 0.0178 µM; in assay [3], over 10 µM; in assay [4], 0.145 µM; in assay [6], over 10 µM; in assay [8], over 10 µM. Moreover, in assay [2], the “BAF3-KDR (MIN IL3) pIC50” value is reported as under 5. Further, the “BAF3-FGFR3 (MIN IL3) pIC50” value in assay [5] was found to be 6.67. The “BAF3-FGFR1 (MIN IL3) pIC50” value in assay [7] turned out to be 6.93.
In the case of `COc1cc(OC)cc(/C(=C/C#N)c2ccc3ncc(-c4cnn(C)c4)nc3c2)c1` [Compound 3], the IC50 in assay [1] is 5.13 µM; in assay [3], over 10 µM; in assay [4], over 10 µM; in assay [6], over 10 µM; in assay [8], over 10 µM. For the same compound, the “BAF3-KDR (MIN IL3) pIC50” value in assay [2] is under 5. For the same compound, the “BAF3-FGFR3 (MIN IL3) pIC50” value in assay [5] is 5.29. Besides, in assay [7], the “BAF3-FGFR1 (MIN IL3) pIC50” value is recorded as under 5.
With `COc1cc(OC)cc(C(CC(C)(O)CNC(C)C)c2ccc3ncc(-c4cnn(C)c4)nc3c2)c1.Cl` (centres unmarked) [Compound 25], the IC50 is about 1 µM in assay [1]; over 10 µM in assay [3]; over 1 µM in assay [4]; over 10 µM in assay [6]; over 10 µM in assay [8]. Moreover, in assay [2], the “BAF3-KDR (MIN IL3) pIC50” value is listed as under 5. Besides, the “BAF3-FGFR3 (MIN IL3) pIC50” value in assay [5] was found to be 5.13. For the same compound, in assay [7], the “BAF3-FGFR1 (MIN IL3) pIC50” value is under 5.
For `COc1cc(OC)cc(C(O)(CNCCNC(C)C)c2ccc3ncc(-c4cnn(C)c4)nc3c2)c1` (single isomer, unassigned) [Compound 5], the IC50 in assay [1] is about 0.741 µM; in assay [3], over 10 µM; in assay [4] it was over 1 µM; in assay [6], over 10 µM; in assay [8], over 10 µM. For the same compound, the “BAF3-KDR (MIN IL3) pIC50” value in assay [2] is on record as under 5. Also, in assay [5], the “BAF3-FGFR3 (MIN IL3) pIC50” value is reported as under 5. Besides, the “BAF3-FGFR1 (MIN IL3) pIC50” value in assay [7] was under 5.
On to `COc1cc(OC)cc(C(NCCNC(C)C)c2ccc3ncc(-c4cnn(C)c4)nc3c2)c1.Cl` (single isomer, unassigned) [Compound 39], for which the IC50 in assay [1] was over 1 µM. The “BAF3-KDR (MIN IL3) pIC50” value in assay [2] is on record as under 5. Also, in assay [3], the “BAF3-KDR (PLUS IL3) pIC50” value is under 5. Moreover, in assay [4], the “FGFR4 pIC50” value was under 6. The “BAF3-FGFR3 (MIN IL3) pIC50” value in assay [5] was under 5. Moreover, the “BAF3-FGFR3 (PLUS IL3) pIC50” value in assay [6] was under 5. In assay [7], the “BAF3-FGFR1 (MIN IL3) pIC50” value is recorded as under 5. Moreover, in assay [8], the “BAF3-FGFR1 (PLUS IL3) pIC50” value is on record as under 5.
Take `COc1cc(OC)cc(C(CCN)c2ccc3ncc(-c4cnn(C)c4)nc3c2)c1.Cl` (centres unmarked) [Compound 20]: the IC50 in assay [1] was 0.0676 µM; in assay [3] it was over 10 µM; in assay [4], 0.447 µM; in assay [6], over 10 µM; in assay [8] it was over 10 µM. For the same compound, the “BAF3-KDR (MIN IL3) pIC50” value in assay [2] is under 5. Moreover, in assay [5], the “BAF3-FGFR3 (MIN IL3) pIC50” value is on record as 6.04. In addition, the “BAF3-FGFR1 (MIN IL3) pIC50” value in assay [7] was determined as 5.86.
`COc1cc(OC)cc(/C(=C\C#N)c2ccc3ncc(-c4cnn(C)c4)nc3c2)c1` [Compound 4]: the IC50 in assay [1] was 0.102 µM; in assay [3], over 10 µM; in assay [4], 0.363 µM; in assay [6], over 10 µM; in assay [8] it was over 10 µM. Moreover, the “BAF3-KDR (MIN IL3) pIC50” value in assay [2] is under 5. In addition, the “BAF3-FGFR3 (MIN IL3) pIC50” value in assay [5] was 5.76. Further, in assay [7], the “BAF3-FGFR1 (MIN IL3) pIC50” value stood at 5.3.
Regarding `COc1cc(OC)cc(C(NCCNC(C)C)c2ccc3ncc(-c4cnn(C)c4)nc3c2)c1.Cl` (single isomer, unassigned) [Compound 24], the IC50 in assay [1] is 0.324 µM; in assay [3], over 10 µM; in assay [4] it was over 1 µM; in assay [6], over 10 µM; in assay [8], over 10 µM. In addition, in assay [2], the “BAF3-KDR (MIN IL3) pIC50” value is recorded as under 5. Besides, the “BAF3-FGFR3 (MIN IL3) pIC50” value in assay [5] is listed as 5.29. Besides, the “BAF3-FGFR1 (MIN IL3) pIC50” value in assay [7] is on record as 5.16.
Consider `COc1cc(OC)cc(C(O)(CNCCNC(C)C)c2ccc3ncc(-c4cnn(C)c4)nc3c2)c1` (single isomer, unassigned) [Compound 6], for which the IC50 in assay [1] was 0.813 µM. Further, the “BAF3-KDR (MIN IL3) pIC50” value in assay [2] is under 5. In addition, the “BAF3-FGFR3 (MIN IL3) pIC50” value in assay [5] was under 5. The “BAF3-FGFR1 (MIN IL3) pIC50” value in assay [7] is given as under 5.
